Measurements as given in patent US7850948B2, “Radiohalogenated benzamide derivatives and their use in tumor diagnosis and tumor therapy” (Bayer Schering Pharma AG, priority 2004, dated 2010).

How the values were obtained:
[1] = test system: B16/F1 tumor-bearing C57BL6 mice; test: Tissue concentration of radioiodinated benzamides in the C57BL6-B16/F1 mouse model (organ distribution and tumor accumulation); assay type: in vivo; details: for Blood tissue concentration / Liver tissue concentration / Tumor tissue concentration: n = 3
Protocol: (§1) After synthesis and purification, the compounds according to the invention are dissolved in a physiologically compatible medium and kept ready for injection. Organ distribution and tumor accumulation experiments were performed in B16/F1 tumor-bearing C57BL6 mice, and SK-Mel-3 tumor-bearing NMRI nude mice (15-22 g).
(§2) Murine B16/F1 and human SK-Mel-3 cells were ordered from ATCC. B16/F1 cells (0.5×10^6) are washed in buffer (preferably phosphate buffer), suspended and inoculated subcutaneously into C57BL6 mice, 100 μl, in the right rear flanks. Sk-Mel-3 cells (5×10^6) are washed in buffer and then inoculated subcutaneously into NMRI mice in Matrigel® (100 μl) in the right side of the trunk. After about 8-10 days, the animals develop palpable tumors with a surface area of about 30 mm^2. The distribution studies are performed after intravenous caudal vein administration of 3.7-5.5 MBq of the substances according to the invention in 50-100 μl of volume. At certain times after administration, the animals are sacrificed, organs and tumors are removed, optionally dabbed dry, weighed and measured for radioactive content (γ measurement) in a calibrator with the corresponding isotope standard. The results are depicted as % of the injected dose (ID)/g of tissue (Table 1).

[2] = test system: SK-Mel-3 tumor-bearing NMRI nude mice; test: Tumor accumulation in the NMRI-SK-Me13 human xenograft mouse model; assay type: in vivo; details: after 96 hours
Protocol: as §1, §2

thyroid gland = test: Thyroid gland accumulation as indication of dehalogenation in vivo
Text: Another drawback of the most similar compounds of the prior art is that the compounds of Eisenhut et al. dehalogenate more quickly in the body than the compounds according to the invention.
The thyroid gland accumulation of BA40 and BA42, an indication of dehalogenation in vivo, is increased by a factor of 10-15 compared to the compounds according to the invention.

Lipophilicity = assay type: physicochemical; details: in words
[3] = 1 hour after intravenous administration
[4] = 5 hours after intravenous administration
[5] = 24 hours after intravenous administration
[6] = 6 h after intravenous administration

SMILES	Blood tissue concentration [1, 3]	Liver tissue concentration [1, 3]	Tumor tissue concentration [1, 3]	Blood tissue concentration [1, 4]	Liver tissue concentration [1, 4]	Tumor tissue concentration [1, 4]	Blood tissue concentration [1, 5]	Liver tissue concentration [1, 5]	Tumor tissue concentration [1, 5]	Liver concentration compared with BA42 ([1]; after 6 and 24 hours, in words)	Blood accumulation compared with the closest prior art (compound of Eisenhut et al. with NH-Ac) ([1]; in words)	Retardation in the melanoma tissue ([1]; in words)	Stability of the bonded radioisotope I-131 (dehalogenation in vivo) (thyroid gland)	Blood tissue concentration [1, 6]	Liver tissue concentration [1, 6]	Tumor tissue concentration [1, 6]	also measured
CCN(CC)CCNC(=O)c1cc(I)c(NC(=O)c2ccc3c(c2)OCO3)cc1OC [BA52, Benzo[1,3]dioxole-5-carboxylic acid [4-(2-diethylamino-ethylcarbamoyl)-2-iodo-5-methoxy-phenyl]-amide]	1.46 % Injected Dose (ID)/g of Tissue	19.11 % Injected Dose (ID)/g of Tissue	14.83 % Injected Dose (ID)/g of Tissue	0.69 % Injected Dose (ID)/g of Tissue	6.53 % Injected Dose (ID)/g of Tissue	22.69 % Injected Dose (ID)/g of Tissue	0.05 % Injected Dose (ID)/g of Tissue	0.49 % Injected Dose (ID)/g of Tissue	18.82 % Injected Dose (ID)/g of Tissue	considerably lower	considerably less	extended retardation	more stable	–	–	–	Blood accumulation compared with BA42 ([1]; after 6 and 24 hours, in words): considerably lower; Retention in the tumor compared with BA40 and BA42 ([1]; in words): considerably longer; Tumor concentration compared with BA40 and BA42 ([1]; in words): comparable; Accumulation in the tumor [2]: at least 13 % of the injected dose per gram tissue; Lipophilicity compared with the prior art compounds (Lipophilicity): higher lipophilicity
CCN(CC)CCNC(=O)c1cc(I)c(NC(=O)c2ccccc2)cc1OC [BA91]	1.06 % Injected Dose (ID)/g of Tissue	12.68 % Injected Dose (ID)/g of Tissue	9.68 % Injected Dose (ID)/g of Tissue	–	–	–	0.22 % Injected Dose (ID)/g of Tissue	0.76 % Injected Dose (ID)/g of Tissue	13.83 % Injected Dose (ID)/g of Tissue	considerably lower	considerably less	–	more stable	0.97 % Injected Dose (ID)/g of Tissue	3.63 % Injected Dose (ID)/g of Tissue	16.72 % Injected Dose (ID)/g of Tissue	–
CCN(CC)CCNC(=O)c1cc(I)c(NC(=O)c2ccc(Cl)cc2)cc1OC [BA93]	1.30 % Injected Dose (ID)/g of Tissue	13.71 % Injected Dose (ID)/g of Tissue	10.73 % Injected Dose (ID)/g of Tissue	–	–	–	0.22 % Injected Dose (ID)/g of Tissue	1.18 % Injected Dose (ID)/g of Tissue	23.46 % Injected Dose (ID)/g of Tissue	considerably lower	considerably less	extended retardation	more stable	0.82 % Injected Dose (ID)/g of Tissue	5.81 % Injected Dose (ID)/g of Tissue	21.67 % Injected Dose (ID)/g of Tissue	–
CCN(CC)CCNC(=O)c1cc(I)c(NC(=O)c2ccc(OC)cc2)cc1OC [BA95]	1.26 % Injected Dose (ID)/g of Tissue	16.35 % Injected Dose (ID)/g of Tissue	17.45 % Injected Dose (ID)/g of Tissue	0.76 % Injected Dose (ID)/g of Tissue	8.54 % Injected Dose (ID)/g of Tissue	14.83 % Injected Dose (ID)/g of Tissue	0.07 % Injected Dose (ID)/g of Tissue	0.75 % Injected Dose (ID)/g of Tissue	29.69 % Injected Dose (ID)/g of Tissue	considerably lower	considerably less	extended retardation	more stable	–	–	–	–
CCN(CC)CCNC(=O)c1cc(I)c(NC(=O)c2ccc(F)cc2)cc1OC [BA100]	1.21 % Injected Dose (ID)/g of Tissue	15.49 % Injected Dose (ID)/g of Tissue	25.51 % Injected Dose (ID)/g of Tissue	–	–	–	0.07 % Injected Dose (ID)/g of Tissue	0.76 % Injected Dose (ID)/g of Tissue	31.66 % Injected Dose (ID)/g of Tissue	considerably lower	considerably less	extended retardation	more stable	0.70 % Injected Dose (ID)/g of Tissue	4.64 % Injected Dose (ID)/g of Tissue	28.10 % Injected Dose (ID)/g of Tissue	–
